Laboratory results published in the NIST ThermoML archive (doi:10.1021/je700406p).

Assay: wn = mass fraction of the nth substance listed
Settings: Liquid, Vibrating tube method

CC(C)(N)CO [2-amino-2-methylpropan-1-ol] + O
Settings	mass density [kg/m3]
333.05 K, 14990 kPa, w1 = 0.4002	976.2
333.05 K, 15984 kPa, w1 = 0.4002	976.6
333.05 K, 16990 kPa, w1 = 0.4002	977
333.05 K, 18003 kPa, w1 = 0.4002	977.4
333.05 K, 18986 kPa, w1 = 0.4002	977.8
333.05 K, 19988 kPa, w1 = 0.4002	978.2
333.05 K, 21502 kPa, w1 = 0.4002	978.8
342.91 K, 1020 kPa, w1 = 0.2821	969
342.91 K, 2011 kPa, w1 = 0.2821	969.5
342.91 K, 3009 kPa, w1 = 0.2821	969.9
342.91 K, 4010 kPa, w1 = 0.2821	970.3
342.91 K, 4994 kPa, w1 = 0.2821	970.8
342.91 K, 5994 kPa, w1 = 0.2821	971.2
342.91 K, 7035 kPa, w1 = 0.2821	971.6
342.91 K, 7995 kPa, w1 = 0.2821	972
342.91 K, 8990 kPa, w1 = 0.2821	972.4
342.91 K, 9998 kPa, w1 = 0.2821	972.9
342.91 K, 10992 kPa, w1 = 0.2821	973.3
342.91 K, 11994 kPa, w1 = 0.2821	973.7
342.91 K, 12992 kPa, w1 = 0.2821	974.1
342.91 K, 13990 kPa, w1 = 0.2821	974.5
342.91 K, 14992 kPa, w1 = 0.2821	974.9
342.91 K, 15993 kPa, w1 = 0.2821	975.4
342.91 K, 16987 kPa, w1 = 0.2821	975.8
342.91 K, 17985 kPa, w1 = 0.2821	976.2
342.91 K, 18987 kPa, w1 = 0.2821	976.6
342.91 K, 19984 kPa, w1 = 0.2821	977
342.91 K, 20986 kPa, w1 = 0.2821	977.4
342.92 K, 509 kPa, w1 = 0.1997	971.6
342.92 K, 1001 kPa, w1 = 0.1997	971.8
342.92 K, 1008 kPa, w1 = 0.4976	953.4
342.92 K, 2000 kPa, w1 = 0.1997	972.2
342.92 K, 2004 kPa, w1 = 0.4976	953.8
342.92 K, 3000 kPa, w1 = 0.1997	972.7
342.92 K, 3006 kPa, w1 = 0.4976	954.3
342.92 K, 4000 kPa, w1 = 0.1997	973.1
342.92 K, 4000 kPa, w1 = 0.4976	954.8
342.92 K, 4997 kPa, w1 = 0.4976	955.3
342.92 K, 5000 kPa, w1 = 0.1997	973.6
342.92 K, 5996 kPa, w1 = 0.4976	955.7
342.92 K, 6000 kPa, w1 = 0.1997	974
342.92 K, 6996 kPa, w1 = 0.4976	956.2
342.92 K, 7001 kPa, w1 = 0.1997	974.4
342.92 K, 7993 kPa, w1 = 0.4976	956.7
342.92 K, 8000 kPa, w1 = 0.1997	974.8
342.92 K, 8988 kPa, w1 = 0.4976	957.2
342.92 K, 9009 kPa, w1 = 0.1997	975.2
342.92 K, 9983 kPa, w1 = 0.4976	957.6
342.92 K, 10002 kPa, w1 = 0.1997	975.6
342.92 K, 10990 kPa, w1 = 0.4976	958.1
342.92 K, 11001 kPa, w1 = 0.1997	976
342.92 K, 12000 kPa, w1 = 0.1997	976.5
342.92 K, 12003 kPa, w1 = 0.4976	958.5
342.92 K, 12992 kPa, w1 = 0.4976	958.9
342.92 K, 13000 kPa, w1 = 0.1997	976.9
342.92 K, 13996 kPa, w1 = 0.4976	959.4
342.92 K, 14000 kPa, w1 = 0.1997	977.3
342.92 K, 14988 kPa, w1 = 0.4976	959.9
342.92 K, 15002 kPa, w1 = 0.1997	977.7
342.92 K, 15995 kPa, w1 = 0.4976	960.3
342.92 K, 16002 kPa, w1 = 0.1997	978.2
342.92 K, 16984 kPa, w1 = 0.4976	960.8
342.92 K, 17001 kPa, w1 = 0.1997	978.6
342.92 K, 17995 kPa, w1 = 0.4976	961.2
342.92 K, 18002 kPa, w1 = 0.1997	979
342.92 K, 18994 kPa, w1 = 0.4976	961.7
342.92 K, 18999 kPa, w1 = 0.1997	979.2
342.92 K, 19993 kPa, w1 = 0.4976	962.1
342.92 K, 20029 kPa, w1 = 0.1997	979.8
342.92 K, 21004 kPa, w1 = 0.1997	980.2
342.92 K, 21021 kPa, w1 = 0.4976	962.5
342.92 K, 22004 kPa, w1 = 0.1997	980.6
342.92 K, 23001 kPa, w1 = 0.1997	981
342.92 K, 24005 kPa, w1 = 0.1997	981.5
342.93 K, 1004 kPa, w1 = 0.4002	962.4
342.93 K, 2006 kPa, w1 = 0.4002	962.8
342.93 K, 3009 kPa, w1 = 0.4002	963.3
342.93 K, 4013 kPa, w1 = 0.4002	963.7
342.93 K, 4998 kPa, w1 = 0.4002	964.2
342.93 K, 5995 kPa, w1 = 0.4002	964.6
342.93 K, 6996 kPa, w1 = 0.4002	965
342.93 K, 7995 kPa, w1 = 0.4002	965.5
342.93 K, 8994 kPa, w1 = 0.4002	965.9
342.93 K, 10004 kPa, w1 = 0.4002	966.3
342.93 K, 10993 kPa, w1 = 0.4002	966.8
342.93 K, 12000 kPa, w1 = 0.4002	967.2
342.93 K, 12990 kPa, w1 = 0.4002	967.6
342.93 K, 13993 kPa, w1 = 0.4002	968
342.93 K, 14985 kPa, w1 = 0.4002	968.5
342.93 K, 15999 kPa, w1 = 0.4002	968.9
342.93 K, 16987 kPa, w1 = 0.4002	969.3
342.93 K, 17994 kPa, w1 = 0.4002	969.8
342.93 K, 18984 kPa, w1 = 0.4002	970.2
342.93 K, 19987 kPa, w1 = 0.4002	970.6
342.93 K, 20996 kPa, w1 = 0.4002	971
352.84 K, 1007 kPa, w1 = 0.4002	954.4
352.84 K, 2012 kPa, w1 = 0.4002	954.9
352.84 K, 3000 kPa, w1 = 0.4002	955.3
352.84 K, 4011 kPa, w1 = 0.4002	955.8
352.84 K, 5007 kPa, w1 = 0.4002	956.3
352.84 K, 6009 kPa, w1 = 0.4002	956.7
352.84 K, 7008 kPa, w1 = 0.4002	957.2
352.84 K, 8014 kPa, w1 = 0.4002	957.6
352.84 K, 8988 kPa, w1 = 0.4002	958.1
352.84 K, 9986 kPa, w1 = 0.4002	958.5
352.84 K, 11001 kPa, w1 = 0.4002	959
352.84 K, 12004 kPa, w1 = 0.4002	959.5
352.84 K, 12991 kPa, w1 = 0.4002	959.8
352.84 K, 13986 kPa, w1 = 0.4002	960.3
352.84 K, 14991 kPa, w1 = 0.4002	960.8
352.84 K, 15997 kPa, w1 = 0.4002	961.2
352.84 K, 16988 kPa, w1 = 0.4002	961.6
352.84 K, 17995 kPa, w1 = 0.4002	962
352.84 K, 18987 kPa, w1 = 0.4002	962.5
352.84 K, 19995 kPa, w1 = 0.4002	962.9
352.84 K, 20986 kPa, w1 = 0.4002	963.3
352.85 K, 997 kPa, w1 = 0.2821	961.9
352.85 K, 2011 kPa, w1 = 0.2821	962.4
352.85 K, 2994 kPa, w1 = 0.2821	962.8
352.85 K, 4000 kPa, w1 = 0.2821	963.2
352.85 K, 5006 kPa, w1 = 0.2821	963.7
352.85 K, 6000 kPa, w1 = 0.2821	964.1
352.85 K, 6999 kPa, w1 = 0.2821	964.5
352.85 K, 7996 kPa, w1 = 0.2821	965
352.85 K, 8992 kPa, w1 = 0.2821	965.4
352.85 K, 9994 kPa, w1 = 0.2821	965.8
352.85 K, 10987 kPa, w1 = 0.2821	966.2
352.85 K, 12010 kPa, w1 = 0.2821	966.7
